# Like-named read-outs stand apart in the source and are kept apart here.
# Legend:
# Assay type in all cases: cell-based, Enterobacteriaceae
# [1] = test system: NDM-1 strains; conditions: Ex 2, MIC in mg/l
# Text: (§1) Optimization of the Detection Specificity by Introducing Specific Inhibitors Inhibition of Class B Strains (NDM, VIM, IMP) by Adding EDTA
# (§2) Identical to that used to determine the temocillin MICs by agar dilution (example 1).
# (§3) For each temocillin concentration, the following concentrations of active EDTA will be tested in the form of disodium EDTA: 0, 1.77, 2.12, 2.47 and 2.83 mmol/l.
# (§4) Method: identical to the method used in example 1.
# [2] = test system: VIM strains; conditions: Ex 2, MIC in mg/l
# Text: as §1, §2, §3, §4
# [3] = test system: strains with impermeability-mediated resistance (IR); conditions: Ex 2, MIC in mg/l
# Text: as §1, §2, §3, §4
# [4] = test system: KPC strains; assay: Temocillin MIC with EDTA in the medium (Example 2); conditions: Ex 2; 0 mmol/l of EDTA; MIC in mg/l
# Text: as §1, §2, §3, §4
smiles,measurement,setting,value
CO[C@@]1(NC(=O)C(C(=O)O)c2ccsc2)C(=O)N2[C@@H](C(=O)O)C(C)(C)S[C@@H]21 (stereo partly shown) [temocillin],No. of NDM-1 strains with MIC 150,[1]; 0 mmol/l of EDTA,4
same,No. of NDM-1 strains with MIC 200,[1]; 0 mmol/l of EDTA,1
same,No. of NDM-1 strains with MIC 300,[1]; 0 mmol/l of EDTA,0
same,No. of NDM-1 strains with MIC >300,[1]; 0 mmol/l of EDTA,0
same,No. of NDM-1 strains with MIC ≦50,[1]; 0 mmol/l of EDTA,22
same,No. of NDM-1 strains with MIC 150,[1]; 1.77 mmol/l of active EDTA,2
same,No. of NDM-1 strains with MIC 200,[1]; 1.77 mmol/l of active EDTA,0
same,No. of NDM-1 strains with MIC 300,[1]; 1.77 mmol/l of active EDTA,0
same,No. of NDM-1 strains with MIC >300,[1]; 1.77 mmol/l of active EDTA,0
same,No. of NDM-1 strains with MIC ≦50,[1]; 1.77 mmol/l of active EDTA,25
same,No. of NDM-1 strains with MIC 150,[1]; 2.12 mmol/l of active EDTA,1
same,No. of NDM-1 strains with MIC 200,[1]; 2.12 mmol/l of active EDTA,0
same,No. of NDM-1 strains with MIC 300,[1]; 2.12 mmol/l of active EDTA,0
same,No. of NDM-1 strains with MIC >300,[1]; 2.12 mmol/l of active EDTA,0
same,No. of NDM-1 strains with MIC ≦50,[1]; 2.12 mmol/l of active EDTA,26
same,No. of NDM-1 strains with MIC 150,[1]; 2.47 mmol/l of active EDTA,1
same,No. of NDM-1 strains with MIC 200,[1]; 2.47 mmol/l of active EDTA,0
same,No. of NDM-1 strains with MIC 300,[1]; 2.47 mmol/l of active EDTA,0
same,No. of NDM-1 strains with MIC >300,[1]; 2.47 mmol/l of active EDTA,0
same,No. of NDM-1 strains with MIC ≦50,[1]; 2.47 mmol/l of active EDTA,26
same,No. of NDM-1 strains with MIC 150,[1]; 2.83 mmol/l of active EDTA,0
same,No. of NDM-1 strains with MIC 200,[1]; 2.83 mmol/l of active EDTA,0
same,No. of NDM-1 strains with MIC 300,[1]; 2.83 mmol/l of active EDTA,0
same,No. of NDM-1 strains with MIC >300,[1]; 2.83 mmol/l of active EDTA,0
same,No. of NDM-1 strains with MIC ≦50,[1]; 2.83 mmol/l of active EDTA,27
same,No. of VIM strains with MIC 150,[2]; 0 mmol/l of EDTA,6
same,No. of VIM strains with MIC 200,[2]; 0 mmol/l of EDTA,1
same,No. of VIM strains with MIC 300,[2]; 0 mmol/l of EDTA,0
same,No. of VIM strains with MIC >300,[2]; 0 mmol/l of EDTA,1
same,No. of VIM strains with MIC ≦50,[2]; 0 mmol/l of EDTA,9
same,No. of VIM strains with MIC 150,[2]; 1.77 mmol/l of active EDTA,0
same,No. of VIM strains with MIC 200,[2]; 1.77 mmol/l of active EDTA,0
same,No. of VIM strains with MIC 300,[2]; 1.77 mmol/l of active EDTA,0
same,No. of VIM strains with MIC >300,[2]; 1.77 mmol/l of active EDTA,0
same,No. of VIM strains with MIC ≦50,[2]; 1.77 mmol/l of active EDTA,17
same,No. of VIM strains with MIC 150,[2]; 2.12 mmol/l of active EDTA,0
same,No. of VIM strains with MIC 200,[2]; 2.12 mmol/l of active EDTA,0
same,No. of VIM strains with MIC 300,[2]; 2.12 mmol/l of active EDTA,0
same,No. of VIM strains with MIC >300,[2]; 2.12 mmol/l of active EDTA,0
same,No. of VIM strains with MIC ≦50,[2]; 2.12 mmol/l of active EDTA,17
same,No. of VIM strains with MIC 150,[2]; 2.47 mmol/l of active EDTA,0
same,No. of VIM strains with MIC 200,[2]; 2.47 mmol/l of active EDTA,0
same,No. of VIM strains with MIC 300,[2]; 2.47 mmol/l of active EDTA,0
same,No. of VIM strains with MIC >300,[2]; 2.47 mmol/l of active EDTA,0
same,No. of VIM strains with MIC ≦50,[2]; 2.47 mmol/l of active EDTA,17
same,No. of VIM strains with MIC 150,[2]; 2.83 mmol/l of active EDTA,0
same,No. of VIM strains with MIC 200,[2]; 2.83 mmol/l of active EDTA,0
same,No. of VIM strains with MIC 300,[2]; 2.83 mmol/l of active EDTA,0
same,No. of VIM strains with MIC >300,[2]; 2.83 mmol/l of active EDTA,0
same,No. of VIM strains with MIC ≦50,[2]; 2.83 mmol/l of active EDTA,17
same,No. of IR strains with MIC 150,[3]; 0 mmol/l of EDTA,2
same,No. of IR strains with MIC 200,[3]; 0 mmol/l of EDTA,0
same,No. of IR strains with MIC 300,[3]; 0 mmol/l of EDTA,0
same,No. of IR strains with MIC >300,[3]; 0 mmol/l of EDTA,0
same,No. of IR strains with MIC ≦50,[3]; 0 mmol/l of EDTA,8
same,No. of IR strains with MIC 150,[3]; 1.77 mmol/l of active EDTA,4
same,No. of IR strains with MIC 200,[3]; 1.77 mmol/l of active EDTA,1
same,No. of IR strains with MIC 300,[3]; 1.77 mmol/l of active EDTA,1
same,No. of IR strains with MIC >300,[3]; 1.77 mmol/l of active EDTA,0
same,No. of IR strains with MIC ≦50,[3]; 1.77 mmol/l of active EDTA,4
same,No. of IR strains with MIC 150,[3]; 2.12 mmol/l of active EDTA,3
same,No. of IR strains with MIC 200,[3]; 2.12 mmol/l of active EDTA,2
same,No. of IR strains with MIC 300,[3]; 2.12 mmol/l of active EDTA,1
same,No. of IR strains with MIC >300,[3]; 2.12 mmol/l of active EDTA,0
same,No. of IR strains with MIC ≦50,[3]; 2.12 mmol/l of active EDTA,4
same,No. of IR strains with MIC 150,[3]; 2.47 mmol/l of active EDTA,2
same,No. of IR strains with MIC 200,[3]; 2.47 mmol/l of active EDTA,2
same,No. of IR strains with MIC 300,[3]; 2.47 mmol/l of active EDTA,0
same,No. of IR strains with MIC >300,[3]; 2.47 mmol/l of active EDTA,0
same,No. of IR strains with MIC ≦50,[3]; 2.47 mmol/l of active EDTA,6
same,No. of IR strains with MIC 150,[3]; 2.83 mmol/l of active EDTA,3
same,No. of IR strains with MIC 200,[3]; 2.83 mmol/l of active EDTA,1
same,No. of IR strains with MIC 300,[3]; 2.83 mmol/l of active EDTA,0
same,No. of IR strains with MIC >300,[3]; 2.83 mmol/l of active EDTA,0
same,No. of IR strains with MIC ≦50,[3]; 2.83 mmol/l of active EDTA,6
same,No. of KPC strains with MIC 150,[4],0

# — patent US9562899B2, “Method of detecting OXA-048 carbapenemase producing bacteria” (BIOMÉRIEUX, priority 2012, dated 2017)
